The source of these data is patent publication US20030153056A1, “Glycosyltransferase proteins” (priority 2000, published 2003).

In data set [1] the target is T1, Brainiac β1-3-N-acetylglucosaminyltransferase (Drosophila melanogaster, UniProt Q24157).
T1 construct: The full coding region of Brainiac was prepared by PCR using genomic DNA; made in house; host or cells: High Five insect cells (baculovirus vector pVL1393); microsomal fractions
T1 sequence (Q24157 1-325): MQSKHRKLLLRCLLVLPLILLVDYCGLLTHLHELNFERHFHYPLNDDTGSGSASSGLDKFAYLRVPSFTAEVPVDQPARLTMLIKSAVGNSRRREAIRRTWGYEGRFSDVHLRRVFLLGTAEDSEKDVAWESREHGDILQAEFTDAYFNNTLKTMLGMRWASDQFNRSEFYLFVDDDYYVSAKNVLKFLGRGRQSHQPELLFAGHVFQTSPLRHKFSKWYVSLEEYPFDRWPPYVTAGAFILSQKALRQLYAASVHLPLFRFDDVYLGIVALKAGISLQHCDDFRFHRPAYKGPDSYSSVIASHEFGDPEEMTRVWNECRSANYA
Put plainly: Substrate specificities of Brainiac β1-3-N-acetylglucosaminyltransferase (acceptor panel, microsomal preparations). The format is biochemical. The note with it: microsomes of pVL-Brainiac infected High Five cells, background of irrelevant construct subtracted, donor UDP-GlcNAc.

The target in data set [2] is T2, Brainiac (Drosophila melanogaster, UniProt Q24157).
T2 construct: The full coding region of Brainiac was prepared by PCR using genomic DNA; made in house; host or cells: High Five insect cells (baculovirus vector pVL1393); microsomal fractions
T2 sequence (Q24157 1-325): T1 sequence (Q24157 1-325)
Put plainly: Initial analysis of Brainiac glycosyltransferase activity with monosaccharides and four UDP sugar nucleotides. The format is biochemical. The following applies: panel of monosaccharides, donor UDP-GlcNAc, High Five cell microsomes. The method, then: (§1) Brainiac-full was cloned into baculovirus vector pVL1393 (Pharmingen) and expressed in High Five cells. Microsomal fractions were prepared as described above for Fringe but with 0.5% N-octylglucoside as Triton X-100 and related detergents destroyed the activity. Initial analysis of activity was done with five monosaccharides and four donor sugar nucleotides as described in FIG. 5 for Fringe. Assays with the acceptors listed in Table 1 were performed as described for Fringe except no additional detergent was added. Reactions with glycolipid substrates were performed in the presence of 0.5% N-octylglucoside in 50 ul reaction volume containing 10 μg glycolipid.
In the latter case the acceptor sugar was not determined.

A further data set has as its target T3, Fringe (Drosophila melanogaster, UniProt Q24342).
T3 construct: made in house; host or cells: High Five insect cells (baculovirus vector pVL1393); solubilised microsomal fractions
T3 sequence (Q24342 1-412): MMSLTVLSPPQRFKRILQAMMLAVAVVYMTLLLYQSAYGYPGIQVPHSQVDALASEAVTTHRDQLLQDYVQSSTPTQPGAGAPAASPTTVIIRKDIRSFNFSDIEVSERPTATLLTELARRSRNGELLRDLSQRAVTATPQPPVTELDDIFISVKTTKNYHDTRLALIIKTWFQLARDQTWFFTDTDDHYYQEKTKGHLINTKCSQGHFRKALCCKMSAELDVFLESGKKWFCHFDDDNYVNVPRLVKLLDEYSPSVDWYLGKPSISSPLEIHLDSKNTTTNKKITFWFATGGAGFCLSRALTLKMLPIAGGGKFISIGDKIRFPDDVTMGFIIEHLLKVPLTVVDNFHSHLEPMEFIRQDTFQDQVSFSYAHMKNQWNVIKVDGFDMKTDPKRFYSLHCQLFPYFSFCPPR
Briefly: Fringe glycosyltransferase assay, transfer of 14C-labelled UDP-donor sugars onto acceptor sugars. The note with it: for Acceptor for Fringe, in words: microsomal fractions of High Five cells. The class given is biochemical. The method, then: Fringe-Myc and Fringe-NNN-myc were cloned into baculovirus vector pVL1393 (Pharmingen) and expressed in High Five™ cells. Microsomal fractions were prepared by hypotonic lysis ultracentrifugation and solubilised 1:2 (vol/vol) in 20 mM Cacodylate pH 6.5, 1% Triton-CF54, 5 MM MnCl2 containing Leupeptin and Aprotinin as described previously (Amado et al., 1998). For glycosyltransferase assays, 5 μl of this suspension were added to a total of 50 μl reaction mixture containing 25 mM Cacodylate pH 6.5, 0.25% Triton-CF54, 5 mM MnCl2, 500 mM free sugar, 100 μM UDP-^14C-sugar (1280-2000 cpm/nmol). Reactions were incubated at 37° C. for 45-60 minutes, followed by Dowex-1 anion exchange chromatography and scintillation counting of 50% of the flow-through.
To ask whether Fringe has intrinsic glycosyltransferase activity, Fringe-wt and Fring-NNN were produced by baculovirus-infection of insect cells. Microsomal fractions enriched for Golgi membranes were partially solubilized and assayed for the ability to the expressed proteins to catalyze the transfer of ^14C-labelled UDP-donor sugars onto acceptor sugars. A variety of different donor/acceptor combinations were tested (FIG. 5b).
Enzyme activity was measured by transfer of ^14C-labelled donor sugars (as UDP-conjugates) onto acceptor sugars. In FIG. 5b, average results from two experiments are shown. Donors tested were UDP-Glucose (Glc), UDP-Galactose (Gal), UDP-N-acetyl-Glucosamine (GlcNAc) and N-acetyl-Galactosamine (GalNAc). Acceptors tested were Glucose, Galactose, GlcNAc, GalNAc and Fucose.

The target in the next data set is T4, human β3GnT2 (Homo sapiens, UniProt Q9NY97).
T4 sequence (Q9NY97 1-397): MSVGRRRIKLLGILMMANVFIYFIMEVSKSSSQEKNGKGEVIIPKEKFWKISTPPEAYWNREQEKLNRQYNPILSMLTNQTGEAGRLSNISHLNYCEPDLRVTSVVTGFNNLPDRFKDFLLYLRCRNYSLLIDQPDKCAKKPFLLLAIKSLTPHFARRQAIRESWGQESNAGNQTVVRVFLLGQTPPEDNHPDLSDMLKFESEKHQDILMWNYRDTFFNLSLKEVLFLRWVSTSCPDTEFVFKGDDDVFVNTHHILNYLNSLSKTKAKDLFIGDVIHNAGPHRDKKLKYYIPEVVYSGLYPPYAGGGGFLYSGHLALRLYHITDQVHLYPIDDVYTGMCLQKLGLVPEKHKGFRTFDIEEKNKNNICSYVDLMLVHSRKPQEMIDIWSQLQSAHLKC
Briefly: human β3GnT2 activity with glycolipid acceptors. The following applies: not shown. The format is biochemical. The source says: It is interesting to note that Brainiac also functions with Lac-Cer, a glycolipid which has never been described from insects. Brainiac is the ancestral gene of a very large homologous β3glycosyltransferase gene family in mammalian cells, and the members of this family with closest sequence similarity to Brainiac is represented by a family of β3GlcNAc-transferases with similar specificity for Lac-Cer (Shiraishi et al., 2001, J. Biol. Chem., 276: 3498-3507.). One of these designated human β3GnT2 was analysed in detail and shown to use Lac-Cer but not Mac-Cer (not shown).

The target of data set [3] is T2, Brainiac. Briefly: Brainiac activity towards glycosphingolipids. The class given is biochemical. The note with it: 10 μg purified glycolipid, 300 μM UDP-14C-N-acetylglucosamine, FIG. 8. The procedure: FIG. 8: Brainiac activity towards glycosphingolipids purified from insect cells. Microsomal fractions (1.5 mg) of insect cells transfected with pVL-brainiac and pVL-fringe were used as the enzyme source. Reactions contained 10 μg of purified glycolipids and 300 μM of UDP-^14C-N-acetylglucosamine (8200 cpm/nmol). Products were purified on C18-silica cartridges, spotted on HPTLC-plates, developed in 60:35:8 (chloroform:methanol:water) and exposed for autoradiography.
as §1
Glycolipids were obtained from Sigma or purified from High Five insect cells grown in serum free medium. […]

The next data set has as its target T5, Notch (Drosophila melanogaster, UniProt P07207).
T5 construct: expressed in transfected cells; host or cells: Drosophila Schneider S2 cells, transient transfection, pRmHa3
Briefly: Delta-AP binding to Notch transfected S2 cells. The class given is cell-based. The following applies: co-expressed with Notch in S2 cells. The procedure: Cell culture and Binding assays: cDNAs for expression in Schneider S2 cells were cloned into pRmHa3. Cells were transiently transfected by the CaPO4 method using 6-8 μg of DNA per well in 6 well plates. Expression was induced by addition of 0.7 mM CuSO4 for 2 days. Conditioned medium was collected from Notch-AP and Delta-AP transfected cells 2 days after induction. AP activity was adjusted to normalise activity levels of Notch-AP or Delta-AP expressed with or without Fringe. Binding was performed as described in Cheng and Flanagan, 1994. In brief, AP-containing supernatants were supplemented with 0.1% NaN3, and incubated 90 min at room temperature. Cells were washed 5 times in HBSS containing 0.05% BSA and 0.1% azide, and lysed in 10 mM Tris pH 8, 1% Triton-X100. Endogenous AP was inactivated by heat treatment for 10 min 60° C. and the lysates clarified by centrifugation. AP activity was measured in 1M Diethanolamine, 1 mM MgCl2, 5 mM para-nitrophenyl phosphate. Bound AP activity was quantified in 96 well plates using a microplate reader and Micromanager software (BioRad). An additional replicate of each transfection was prepared for immunoblot analysis. Lysates were prepared separately for Immunoblot analysis to allow inclusion of protease inhibitors which are not used in the binding assay. To measure interaction of Delta-AP with transiently transfected S2 cells, bound AP activity was quantified in an enzymatic colour reaction. Cells transfected with empty vector were used as a control. […] AP activity is shown in mOD units/minute in cell extracts (replicate experiments are shown in this figure). In this experiment Fringe stimulated binding by over 50 fold. […] However, the assay allows measurement of Fringe-dependent stimulation of Delta-AP binding.

Data set [4] deals with Notch activation in the wing imaginal disc. Briefly: Ectopic expression under patched GAL4 control in wing imaginal disc, Wingless expression. The format is in vivo, Drosophila. The following applies: expressed under patched GAL4 control. The source says: (e), (f), (g) Wing imaginal discs labelled to visualise Wingless protein (left panel) and the myc epitope tag (right panel). (e) patched^GAL4/+wing disc. Wingless is expressed in a continuous stripe along the DV boundary. (f) patched^GAL4/UAS-Fringe-GalNT3-myc. Golgi-tethered Fringe-GalNT3-myc expression in the patched^GAL4 stripe is shown in the right-hand panel. The endogenous Wingless stripe is interrupted where the Golgi-tethered Fringe stripe crosses the DV boundary (left panel). At the anterior-posterior compartment boundary the Golgi-tethered Fringe stripe abuts the endogenous Wingless stripe and induces ectopic expression of Wingless in the ventral compartment. This pattern is identical to that reported for ectopic expression of wild-type (secreted) Fringe shown in panel (g) for the Golgi-tethered Fringe D: dorsal compartment. V ventral compartment. Posterior is to the right. […] These effects precisely match those caused by expression of wild-type Fringe (not shown; see Panin et al., 1997; Kim et al., 1995). […] Cells were transfected to express Notch, wild-type Fringe-wt-myc, or mutant Fringe-NNN-myc as indicated. Cells transfected with empty vector were used as a control. Fringe-NNN-Myc has no activity in the binding assay, despite being expressed at higher levels than Fringe-wt-Myc.

Where a chain is given by its changes, count along the chain named.

T5 sequence (P07207 53-2703): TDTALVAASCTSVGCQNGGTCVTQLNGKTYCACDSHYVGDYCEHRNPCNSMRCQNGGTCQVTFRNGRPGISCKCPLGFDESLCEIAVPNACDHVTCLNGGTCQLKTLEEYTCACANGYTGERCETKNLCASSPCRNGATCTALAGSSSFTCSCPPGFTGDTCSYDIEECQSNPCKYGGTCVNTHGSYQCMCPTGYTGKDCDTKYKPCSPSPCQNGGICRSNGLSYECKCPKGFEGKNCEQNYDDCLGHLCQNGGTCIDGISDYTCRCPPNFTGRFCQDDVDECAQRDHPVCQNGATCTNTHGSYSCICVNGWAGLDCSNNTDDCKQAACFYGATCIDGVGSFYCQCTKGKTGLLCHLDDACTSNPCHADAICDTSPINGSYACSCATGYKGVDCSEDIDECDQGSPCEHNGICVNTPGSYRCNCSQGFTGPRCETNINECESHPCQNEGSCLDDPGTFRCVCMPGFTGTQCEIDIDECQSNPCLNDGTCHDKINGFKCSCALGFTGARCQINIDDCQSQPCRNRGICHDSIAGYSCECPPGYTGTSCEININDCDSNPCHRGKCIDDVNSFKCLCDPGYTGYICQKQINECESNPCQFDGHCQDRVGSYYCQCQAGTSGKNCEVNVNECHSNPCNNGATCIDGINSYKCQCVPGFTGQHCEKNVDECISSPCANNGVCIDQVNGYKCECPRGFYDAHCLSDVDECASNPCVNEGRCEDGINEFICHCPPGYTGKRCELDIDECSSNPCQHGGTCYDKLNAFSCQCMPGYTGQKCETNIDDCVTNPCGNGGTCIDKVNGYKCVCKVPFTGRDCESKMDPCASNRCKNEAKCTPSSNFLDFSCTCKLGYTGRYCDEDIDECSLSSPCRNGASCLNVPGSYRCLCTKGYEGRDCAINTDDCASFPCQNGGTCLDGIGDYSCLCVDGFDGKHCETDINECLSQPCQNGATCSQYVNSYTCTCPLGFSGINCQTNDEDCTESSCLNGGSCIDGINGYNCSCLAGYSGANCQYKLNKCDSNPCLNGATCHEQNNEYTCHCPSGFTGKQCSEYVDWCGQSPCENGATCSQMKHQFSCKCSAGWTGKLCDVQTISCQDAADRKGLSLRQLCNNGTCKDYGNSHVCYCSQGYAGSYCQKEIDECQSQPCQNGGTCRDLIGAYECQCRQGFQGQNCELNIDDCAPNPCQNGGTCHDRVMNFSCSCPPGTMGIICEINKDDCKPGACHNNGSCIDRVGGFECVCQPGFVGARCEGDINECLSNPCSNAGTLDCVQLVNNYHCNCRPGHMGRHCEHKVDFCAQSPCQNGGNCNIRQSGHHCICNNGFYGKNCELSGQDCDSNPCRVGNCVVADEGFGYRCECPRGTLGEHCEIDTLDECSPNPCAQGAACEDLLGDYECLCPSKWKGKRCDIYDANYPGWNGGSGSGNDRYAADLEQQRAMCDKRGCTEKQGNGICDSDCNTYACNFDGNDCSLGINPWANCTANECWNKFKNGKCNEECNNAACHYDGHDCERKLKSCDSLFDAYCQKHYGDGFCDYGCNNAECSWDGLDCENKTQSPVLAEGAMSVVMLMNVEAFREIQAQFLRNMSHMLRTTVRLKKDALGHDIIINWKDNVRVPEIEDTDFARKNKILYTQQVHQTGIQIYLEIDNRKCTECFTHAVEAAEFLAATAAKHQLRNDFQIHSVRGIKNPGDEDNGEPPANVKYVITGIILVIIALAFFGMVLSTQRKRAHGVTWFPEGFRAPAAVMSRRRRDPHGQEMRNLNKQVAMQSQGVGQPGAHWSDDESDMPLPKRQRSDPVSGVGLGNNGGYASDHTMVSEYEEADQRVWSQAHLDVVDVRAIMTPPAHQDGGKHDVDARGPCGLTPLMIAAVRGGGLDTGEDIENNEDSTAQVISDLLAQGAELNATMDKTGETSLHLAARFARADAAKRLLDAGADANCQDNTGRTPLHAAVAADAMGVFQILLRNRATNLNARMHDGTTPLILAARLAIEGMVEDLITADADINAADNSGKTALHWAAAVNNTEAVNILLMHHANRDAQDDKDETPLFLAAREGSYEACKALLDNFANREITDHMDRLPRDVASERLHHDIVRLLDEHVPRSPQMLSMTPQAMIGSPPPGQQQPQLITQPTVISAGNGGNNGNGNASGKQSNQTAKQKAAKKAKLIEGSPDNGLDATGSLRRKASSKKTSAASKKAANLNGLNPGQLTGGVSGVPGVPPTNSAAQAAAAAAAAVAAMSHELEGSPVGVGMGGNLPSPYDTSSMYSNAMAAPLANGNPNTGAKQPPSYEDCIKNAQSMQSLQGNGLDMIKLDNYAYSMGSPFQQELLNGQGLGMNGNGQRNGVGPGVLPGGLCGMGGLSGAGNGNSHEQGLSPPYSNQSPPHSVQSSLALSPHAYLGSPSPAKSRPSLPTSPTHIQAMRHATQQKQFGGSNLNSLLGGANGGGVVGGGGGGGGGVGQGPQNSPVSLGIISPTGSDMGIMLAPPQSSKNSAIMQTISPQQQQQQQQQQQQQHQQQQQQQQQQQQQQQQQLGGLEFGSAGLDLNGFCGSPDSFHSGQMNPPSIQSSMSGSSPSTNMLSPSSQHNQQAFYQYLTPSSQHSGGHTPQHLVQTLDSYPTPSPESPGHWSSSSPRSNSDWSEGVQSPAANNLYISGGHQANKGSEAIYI

With `OC[C@H]1OC(O)[C@@H](O)[C@@H](O)[C@@H]1O` (stereo partly drawn) [D-Man], the entries for the “Brainiac activity with substrate” value in data set [1] (substrate 2 mM) and in data set [1] (substrate 20 mM) were 0.28 nmol/h/mg and 1.70 nmol/h/mg, respectively. Besides, the “Acceptor for Brainiac, in words (initial analysis)” value at Brainiac [2] was “best acceptor”.

On to `C[C@H](O)[C@@H](O)[C@@H](O)[C@H](O)C=O` [Fucose], for which the “Glycosyltransferase activity of Fringe-wt microsome lysate over background level observed with Fringe-NNN” value on Fringe (donor UDP-N-acetylglucosamine (GlcNAc), average of two experiments, FIG. 5b) amounted to 18 fold.

On to `C[C@@H]1OC(O)[C@@H](O)[C@H](O)[C@@H]1O` (stereo partly drawn) [L-Fuc], for which the “Brainiac activity with substrate” value in data set [1] (substrate 2 mM) was determined as 0.00 nmol/h/mg; in data set [1] (substrate 20 mM) it was 0.05 nmol/h/mg. Besides, the “Acceptor for Brainiac, in words (initial analysis)” value on Brainiac [2] is listed as “poor substrate”.

On to `C[C@@H]1O[C@@H](Oc2ccc([N+](=O)[O-])cc2)[C@@H](O)[C@H](O)[C@@H]1O` [L-Fucα1-pNph], for which the figures for the “Brainiac activity with substrate” value in data set [1] (substrate 2 mM) and in data set [1] (substrate 20 mM) were 0.02 nmol/h/mg and 0.03 nmol/h/mg, respectively. For the same molecule, at Fringe, the “Acceptor for Fringe, in words” value is “did not act as acceptors”.

For `C[C@@H]1O[C@H](Sc2ccc([N+](=O)[O-])cc2)[C@@H](O)[C@H](O)[C@@H]1O` [β-L-Fuc-1-thio-p-Nph], the “Acceptor for Fringe, in words” value on Fringe was “did not act as acceptors”.

On to Galβ1-4Glcβ1-Cer, for which the “Glycolipid used by human β3GnT2, in words” value at human β3GnT2 was “use Lac-Cer”. Further, the “Glycolipid substrate for Brainiac, in words” value at Brainiac [3] is listed as “served as a substrate”.

Consider Manβ1-4Glcβ1-Cer, for which the “Glycolipid used by human β3GnT2, in words” value at human β3GnT2 is “not Mac-Cer”. Also, the “Glycolipid substrate for Brainiac, in words” value on Brainiac [3] was “efficient substrate”.

B1: Fringe-NNN: Fringe-myc with amino acids D236, 237 and 238 converted to asparagine residues (protein, UniProt Q24342 1-412, looked up, variant D236N D237N D238N)
Fringe glycosyltransferase: T3 sequence (Q24342 1-412) with D236N, D237N, D238N
modifications: C-terminal myc tag
notes: Fringe-myc with amino acids D236, 237 and 238 converted to asparagine residues
For the molecule B1, the “Effect on Delta-AP binding, in words” value in the data set with Notch is “did not increase Delta-AP binding above background levels”; with Notch (listed as Fringe-NNN-Myc) it was “no activity”. The “Effect on Wingless expression / Notch activation in wing disc, in words” value in data set [4] is “did not cause Notch activation in the ventral compartment”.
